Test [1] relates to Human CMV strain AD169. Description: HCMV yield reduction assay in HFF cells. In kind it is cell-based, human cytomegalovirus. The settings on record: Human betaherpesvirus 5, AD169, HFF. The protocol: Human CMV strain AD169 was obtained from ATCC and assayed in human foreskin fibroblast cells (HFF). HFF cells were prepared at the University of Alabama at Birmingham (UAB) tissue procurement facility with IRB approval as previously described. Yield reduction assays for HCMV were performed on monolayers of HFF cells prepared in 96-well plates and incubated at 37°C for 1d to allow the cells to reach confluency. Media was then aspirated from the wells were infected at a high multiplicity of infection (MOI). At 1h following infection, the inocula were removed and the monolayers rinsed with fresh media. Compounds were then diluted in assay media consisting of MEM with Earl’s salts supplemented with 2% FBS, L-glutamine, penicillin, and gentamycin. Solutions ranging from 0.0032–10μM in primary assay and 0.032–100μM in secondary assay were added to the wells and the plates were incubated for various times, depending on the virus used and represents the length of a single replication cycle for the virus. A duplicate set of dilutions were also performed but remained uninfected to serve as a cytotoxicity control and received equal compound exposure. Supernatants from each of the infected wells were subsequently titered in a TCID50 assay to quantify the progeny virus.

Test [2] deals with Epstein-Barr virus (EBV) Akata strain. Description: EBV primary assay, DNA hybridization in induced Akata cells. In kind it is cell-based. On the procedure:
(§1) EBV Akata strain was assayed in Akata cells (John Sixbey, LSU) latently infected with EBV (and therefore oncogenic). Cells were maintained in RPMI 1640, (Mediatech) with 10% FBS (Hyclone), L-glutamine, penicillin and gentamicin.
For Primary assay, Akata cells latently infected with EBV were induced to undergo lytic infection by addition of 50μg/ml of a goat anti-human IgG [16] and a dose-range of verdinexor (0.032 to 100 μM) was added for 72hr. Denaturation buffer was added and an aliquot aspirated through an Immobilon nylon membrane (Millipore, Bedford, MA). Dried membranes were equilibrated in DIG Easy Hyb solution (Roche Diagnostics, Indianapolis, IN) at 56°C. Specific DIG-labeled probes for EBV (S1 Table). (Roche Diagnostics). Membranes with EBV DNA were hybridized overnight followed by washes in 0.2× SSC and 0.1× SSC both with 0.1% SDS. Detection of specifically bound DIG probe was performed with anti-DIG antibody (Roche Diagnostics). An image of the photographic film was captured and quantified with QuantityOne software (Bio-Rad), and the EC50 were interpolated.

Test [3] has the same test system. Description: EBV secondary assay, qPCR of viral DNA in induced Akata cells. In kind it is cell-based. The protocol: as §1
Secondary assay for EBV were performed in Akata cells that were induced to undergo a lytic infection with 50μg/ml of a goat anti-human IgG antibody by methods we reported previously. Experimental compounds were diluted in round bottom 96-well plates to yield concentrations ranging from 0.0032–100μM. Akata cells were added to the plates at a concentration of 4×10^4 cells per well and […]. Assay plates were incubated for seven days at 37°C. For all assays, the replication of the virus was assessed by the quantification of viral DNA. For primer sequences, please see S1 Table. EBV DNA was purified according to manufacturer’s instructions (Wizard SV 96 Genomic DNA Purification System). The purified DNA was then subjected to qPCR that amplified a fragment corresponding to nucleotides 96802–97234 in the EBV genome (AJ507799). Plasmid pMP218 containing a DNA sequences corresponding to nucleotides 14120–14182 (AF148805.2) was used to provide absolute quantification of viral DNA. Compound concentrations sufficient to reduce genome copy number by 50% were calculated from experimental data.
For orientation: Real-time PCR tracks product formation cycle by cycle.

For test [4], the system named is JC polyoma virus MAD-4 strain. Description: microbe, parasite or virus in culture. The test is classed as cell-based. The settings on record: Polyomavirus sp., COS-7, JCPyV, primary screen, COS-7 cells. The protocol:
(§2) John Cunningham polyomavirus (JCPyV) strains MAD-1 and MAD-4 and BK polyomavirus (BKPyV) Gardner strain were obtained from ATCC. COS-7 cells were obtained from ATCC and maintained according to ATCC-supplied protocols.
Cytotoxicity assay was performed in a manner analogous to KSHV above. Evaluation of compounds against JCPyV virus was done in COS7 cells with the plasmid pMP508 to provide a standard curve for quantification.
Viral DNA was quantified (S1 Table) together with the plasmid pMP508 to provide a standard curve for absolute quantification. Secondary assays against JCV were also performed in COS7 cells by methods similar to those for BK virus to identify if verdinexor inhibited adsorption or entry of the virus.

Test [5] concerns KSHV strain BCBL-1. Description: KSHV qPCR of viral DNA in PMA-induced BCBL-1 cells. The test is classed as cell-based, Kaposi's sarcoma-associated herpesvirus. The settings on record: Human gammaherpesvirus 8, BCBL1, KSHV. The protocol:
KSHV strain BCBL-1 was obtained as latently infected BCBL-1 cells through the NIH AIDS Research and Reference Reagent Program. BCBL-1 cells were maintained in growth medium consisting of RPMI 1640 supplemented with 10% FBS, penicillin, gentamicin, and l-glutamine.
To quantify virus, compound was diluted from 0.008–100μM and added to BCBL-1 cells induced to undergo a lytic infection by the addition of 100ng/ml phorbol 12-myristate 13-acetate (PMA) (Promega). After 7d, total DNA was prepared, and viral DNA was quantified by qPCR (see S1 Table for primer/probe sequences). Plasmid pMP218 containing a DNA sequence corresponding to nucleotides 14120–14182 (AF148805.2) was used to provide absolute quantification of viral DNA and EC50 [11].

For test [6], the system named is BK polyomavirus (BKPyV) Gardner strain. Briefly: BKPyV qPCR genome copy assay in HFF cells. In kind it is cell-based. The settings on record: Betapolyomavirus hominis. On the procedure:
as §2
Primary assays for BKPyV were performed in 384-well plates containing monolayers of HFF cells. Compound dilutions ranging from 0.0032–100μM were prepared in plates containing cells which were subsequently infected at an MOI of 0.001. After a 7d incubation, total DNA was prepared using Extracta and genome copy number was quantified by qPCR using the primers and probe listed in S1 Table [18]. Plasmid pMP526 served as the DNA standard for quantification purposes. Compounds were confirmed in a similar assay in 96-well plates according to established laboratory protocols with the compounds added 1h […] to identify compounds that inhibit early stages of replication including adsorption and entry. Genome copy number was determined by methods described above.

Test [7] has as its system HPV-11. Briefly: HPV-11 transient origin-plasmid replication assay in HEK293 cells (qPCR). The test is classed as cell-based, human papillomavirus. On the procedure: HPV-11 and -18 were tested in HEK293 cells and primary human keratinocytes (PHK), respectively. PHKs were isolated from neonatal foreskins following circumcision according to IRB-approved protocols at UAB. They were grown in keratinocyte serum-free medium (Life Technologies) with mitomycin C-treated J2 feeder cells (Swiss 3T3 J2 fibroblasts; Elaine Fuchs, Rockefeller University). HEK 293 cells were maintained under standard conditions.
Quantification of virus was determined via transient replication of an HPV-11 replication origin-containing plasmid in HEK293 cells co-transfected with an HPV-11 replicative DNA helicase E1 and origin binding E2 protein [20]. 293 cells were cultured with test compounds added 4hr post-transfection for 2 days. Low molecular weight DNA was isolated, digested with Dpn1 and exonuclease III to eliminate unreplicated DNA. The Dpn1-resistant DNA was then subjected to qPCR analyses amplifying a small portion of the replication origin [20]. In a negative control, the E1 expression vector was omitted or cultures were treated with the inhibitor cidofovir.

Where [8] appears, read: human gammaherpesvirus 4, Akata.

Structures are written as SMILES.

Here are results for 3 compounds from publication PMC6192554, “In vitro toxicity and efficacy of verdinexor, an exportin 1 inhibitor, on opportunistic viruses affecting immunocompromised individuals” (PLoS ONE, 2018).

For orientation: EC50 means the midpoint of the concentration-response curve.

Consider `Nc1nc(O)c2ncn(COC(CO)CO)c2n1` [ganciclovir, reference compound], for which the EC50 in test [1] (primary screen) is 0.51 µM; in test [1] (secondary screen), 4 µM.

For the compound `Nc1nc2c(ncn2COCCO)c(=O)[nH]1` [acyclovir, reference compound], the “SI (Selectivity Index, CC50/EC50)” value in test [2] (EBV, primary screen, DNA hybridization) is over 7; in test [3] (EBV, secondary screen, qPCR), over 13. Further, the EC50 in test [2] (setting [8]) was 15 µM; in test [3] (setting [8]) it was 7.9 µM.

With `Nc1ccn(C[C@@H](CO)OCP(=O)(O)O)c(=O)n1` [cidofovir, reference compound], the EC50 is 3.86 µM in test [4]; under 0.48 µM in test [5] (primary screen); 1.68 µM in test [5] (secondary screen); 4.48 µM in test [6] (primary screen); 2.06 µM in test [6] (secondary screen, compound added 1h post-infection); 148 µM in test [7] (Human papillomavirus, HPV-11, primary screen). In test [7] (primary screen, qPCR), the “efficacy against HPV-11” value is reported as “did not show efficacy”.
